Among the test systems are OVCAR-8 ovarian; SF-539 CNS; SF-295 CNS; SNB-75 CNS; MDA-MB-231 breast; SNB-19 CNS; UO-31 renal; SN12C renal; RPMI-8226 leukemia; IGROV1 ovarian.
Holding throughout (assay): NCI-60 cell line screen, 48 h

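Following 48 hours of exposure in 96-well plates, responses at five concentrations were used to interpolate endpoints linearly. GI50 is the concentration that inhibits growth by half. TGI is the concentration that stops growth completely.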

Turning to `COc1cc(OCc2cccc(-c3ccccc3)c2C)cc(OC)c1CN1CCCCC1C(=O)NCCOCCOCCN` (stereo not given), the GI50 with OVCAR-8 ovarian is 3.26 µM; in the assay on SF-539 CNS it was 1.74 µM; with SF-295 CNS, 2.03 µM; in the assay with SNB-75 CNS, 2.22 µM; with MDA-MB-231 breast it was 1.8 µM; in the assay on SNB-19 CNS, 2.95 µM. In addition, the GI50 in the assay on UO-31 renal was 10.6 µM; with SN12C renal, 2.47 µM; with RPMI-8226 leukemia, 2.04 µM; in the assay on IGROV1 ovarian, 3.06 µM. The TGI in the assay on OVCAR-8 ovarian turned out to be 12.1 µM; in the assay on SF-539 CNS, 3.25 µM; in the assay with SF-295 CNS, 4.23 µM; with SNB-75 CNS it was 17.7 µM; in the assay on MDA-MB-231 breast, 3.84 µM; in the assay with SNB-19 CNS, 10.6 µM. The TGI was determined as 22.9 µM with UO-31 renal, 7.01 µM in the assay on SN12C renal, 5 µM with RPMI-8226 leukemia and 12.1 µM in the assay with IGROV1 ovarian.

With `COc1cc(F)ccc1-c1cc(Nc2cc(CS(C)(=N)=O)ccn2)ncc1F` (stereo not given), the GI50 is 0.0914 µM with OVCAR-8 ovarian; 0.0366 µM with SF-539 CNS; 0.0662 µM in the assay with SF-295 CNS; 0.0663 µM in the assay on SNB-75 CNS; 0.0974 µM in the assay with MDA-MB-231 breast; 0.0644 µM in the assay on SNB-19 CNS. Besides, the GI50 with UO-31 renal was 0.0337 µM; with SN12C renal, 0.0583 µM; in the assay on RPMI-8226 leukemia, 0.11 µM; in the assay on IGROV1 ovarian it was 0.0571 µM. The TGI was greater than 100 µM with OVCAR-8 ovarian; 0.272 µM in the assay on SF-539 CNS; greater than 100 µM with SF-295 CNS; 0.433 µM in the assay with SNB-75 CNS; greater than 100 µM with MDA-MB-231 breast; greater than 100 µM in the assay with SNB-19 CNS. Further, the TGI is greater than 100 µM in the assay with UO-31 renal, greater than 100 µM in the assay with SN12C renal, 0.662 µM in the assay on RPMI-8226 leukemia and greater than 100 µM with IGROV1 ovarian.

As to `O=C(c1ccc2ccccc2c1)c1nc2cc(F)ccc2[n+]([O-])c1C(F)(F)F`, the GI50 in the assay with OVCAR-8 ovarian was 16.7 µM; with SF-539 CNS, 22 µM; with SF-295 CNS it was 18.3 µM; with SNB-75 CNS, 17 µM; in the assay with MDA-MB-231 breast, 18.8 µM; in the assay on SNB-19 CNS, 19.4 µM. Besides, the GI50 is 9.42 µM in the assay on UO-31 renal, 26.6 µM in the assay on SN12C renal, 20.1 µM in the assay with RPMI-8226 leukemia and 8.36 µM in the assay on IGROV1 ovarian. For the same compound, the TGI in the assay with OVCAR-8 ovarian is 32.4 µM; in the assay with SF-539 CNS it was 48.9 µM; with SF-295 CNS, 37.9 µM; in the assay on SNB-75 CNS, 35.9 µM; with MDA-MB-231 breast it was 38 µM; in the assay on SNB-19 CNS it was 37.8 µM. For the same compound, the TGI in the assay with UO-31 renal was determined as 48.8 µM; in the assay on SN12C renal, 71.4 µM; in the assay on RPMI-8226 leukemia, 53.7 µM; in the assay on IGROV1 ovarian, 21.6 µM.

Take `C=CC(C)(C)n1cc(C2=C(O)C(=O)C(c3cn(C(C)(C)C=C)c4ccccc34)=C(O)C2=O)c2ccccc21`: the TGI with OVCAR-8 ovarian was 13.6 µM; in the assay with SF-539 CNS it was 4.11 µM; in the assay on SF-295 CNS, 12.8 µM; in the assay on SNB-75 CNS, 7.77 µM; with MDA-MB-231 breast, 8.27 µM; in the assay on SNB-19 CNS it was 7.38 µM. The TGI in the assay with UO-31 renal was found to be 4.27 µM; in the assay on SN12C renal it was 7.03 µM; in the assay on RPMI-8226 leukemia, 40.2 µM; in the assay on IGROV1 ovarian it was 7.15 µM.

As for `Nc1c(C(=O)c2cccc(C#CCN3CCCCC3)c2)cnn1-c1ccc(F)cc1`, the GI50 in the assay with OVCAR-8 ovarian, with SF-539 CNS, in the assay on SF-295 CNS, in the assay on SNB-75 CNS, in the assay on MDA-MB-231 breast and in the assay with SNB-19 CNS was greater than 25 µM throughout. In addition, the GI50 was 16.2 µM in the assay on UO-31 renal, 24.4 µM in the assay on SN12C renal, greater than 17 µM in the assay on RPMI-8226 leukemia and greater than 25 µM with IGROV1 ovarian. Besides, the TGI in the assay with OVCAR-8 ovarian, in the assay on SF-539 CNS, in the assay with SF-295 CNS, in the assay with SNB-75 CNS, in the assay with MDA-MB-231 breast and in the assay with SNB-19 CNS was greater than 25 µM each time. The TGI in the assay with UO-31 renal, in the assay with SN12C renal, with RPMI-8226 leukemia and in the assay with IGROV1 ovarian was greater than 25 µM in each case.

`COc1ccc(-c2cnnn2-c2nonc2-n2cccc2)cc1OC`: the GI50 with OVCAR-8 ovarian was 5.29 µM; with SF-539 CNS it was 3.44 µM; in the assay on SF-295 CNS it was 3.94 µM; in the assay on SNB-75 CNS, 4.19 µM; in the assay on MDA-MB-231 breast, 5.35 µM; in the assay on SNB-19 CNS, 13.2 µM. In addition, the GI50 in the assay with UO-31 renal is 6.27 µM; with SN12C renal, 5.71 µM; in the assay on RPMI-8226 leukemia, 4.85 µM; in the assay with IGROV1 ovarian, 5.13 µM. Also, the TGI in the assay with OVCAR-8 ovarian is greater than 100 µM; in the assay on SF-539 CNS, 22.2 µM; with SF-295 CNS it was 44.6 µM; with SNB-75 CNS, 39.2 µM; with MDA-MB-231 breast, 69.4 µM; in the assay with SNB-19 CNS, greater than 100 µM. For the same compound, the TGI in the assay on UO-31 renal, in the assay on SN12C renal, in the assay on RPMI-8226 leukemia and in the assay with IGROV1 ovarian was greater than 100 µM each time.

As to `CCN1[C@@H](C(=O)NC23CCC(C(=O)O)(CC2)CC3)[C@H](c2cccc(Cl)c2F)[C@]2(C(=O)Nc3cc(Cl)ccc32)C12CCCCC2`, the GI50 is 3.84 µM with OVCAR-8 ovarian; 2.78 µM in the assay with SF-539 CNS; 2.21 µM in the assay with SF-295 CNS; 1.91 µM in the assay with SNB-75 CNS; 5.85 µM in the assay on MDA-MB-231 breast; 3.56 µM in the assay on SNB-19 CNS. Besides, the GI50 in the assay on UO-31 renal is 0.0779 µM; in the assay with SN12C renal it was 3.67 µM; in the assay with RPMI-8226 leukemia, 2.33 µM; in the assay with IGROV1 ovarian it was 0.99 µM. Moreover, the TGI in the assay with OVCAR-8 ovarian was 18.7 µM; with SF-539 CNS, 10.6 µM; in the assay with SF-295 CNS, 7.29 µM; with SNB-75 CNS, 14.8 µM; with MDA-MB-231 breast, 27.4 µM; in the assay with SNB-19 CNS, 15.2 µM. Further, the TGI amounted to 3.6 µM in the assay with UO-31 renal, 19.4 µM with SN12C renal, 6.61 µM in the assay with RPMI-8226 leukemia and 15.5 µM in the assay on IGROV1 ovarian.

For the compound `COc1cc(C2=NN(C(C)=O)C(c3cc(OC)c(OC)c(OC)c3)C2)ccc1O` (stereo not given), the GI50 in the assay with OVCAR-8 ovarian was 0.619 µM; with SF-539 CNS, 0.271 µM; with SF-295 CNS it was 0.216 µM; in the assay on SNB-75 CNS, 0.26 µM; in the assay on MDA-MB-231 breast, 1.79 µM; with SNB-19 CNS, 0.491 µM. Besides, the GI50 is 0.809 µM with UO-31 renal, 0.882 µM in the assay with SN12C renal, 0.311 µM in the assay with RPMI-8226 leukemia and 0.584 µM with IGROV1 ovarian. For the same compound, the TGI in the assay on OVCAR-8 ovarian was greater than 100 µM; in the assay on SF-539 CNS, 1.54 µM; with SF-295 CNS, greater than 100 µM; with SNB-75 CNS, greater than 100 µM; in the assay on MDA-MB-231 breast, greater than 100 µM; in the assay with SNB-19 CNS it was greater than 100 µM. In addition, the TGI in the assay with UO-31 renal is greater than 100 µM; with SN12C renal it was greater than 100 µM; in the assay with RPMI-8226 leukemia it was 4.03 µM; with IGROV1 ovarian it was greater than 100 µM.

The record behind these values is PubChem BioAssay (NCI).
